Measured values taken from US8097585B2, “Methods of treating inflammation by administration of heme oxygenase-1 and products of heme degradation” (priority 2002, dated 2012).
Structures can show the parent of a compound that is named as a salt.

Columns and labels:
HO-1 = assay: HO activity assay on spleen and heart of treated mice; format: in vivo, DBA/2J mice; conditions: 5 mg/kg i.p., one day after treatment
Description: HO activity assay. DBA/2J mice were given either no treatment or CoPPIX or ZnPPIX at a dose of 5 mg/kg, i.p. (n=10 per group). One day after the treatment, the animals were sacrificed, the spleen and the heart were excised, and tissue samples were frozen at −80° C. Frozen tissue samples were homogenized in ice-cold sucrose and Tris-HCl buffer. The microsomal pellet was obtained after centrifugation and re-suspended in MgCl2-potassium phosphate buffer. Sample protein was then incubated with the reaction mixture containing rat liver cytosol, hemin, glucose-6-phosphate, glucose-6-phosphate dehydrogenase and NADPH (Sigma-Aldrich Corporation, St. Louis, Mo.) for 60 minutes at 37° C. The generated bilirubin was measured by reacting with diazotized surfanilic acid to yield azobilirubin using spectrophotometer.

IL-2 = IL-2 assay (ELISA of culture supernatant); format: cell-based, mouse; conditions: anti-CD3 mAb stimulation, biliverdin 50 or 100 μM
Description: IL-2 assay. B6AF1 leukocytes (2.5×10^5 cells/well) were stimulated by anti-CD3 mAb (1 μg/ml), and cultured in 96 well round bottom plates with or without biliverdin (50 or 100 μM). Forty-eight hours later, culture supernatant (100 μl) was collected and stored at −80° C. until use. All cultures were performed in triplicates. IL-2 levels in the supernatants were measured by enzyme-linked immunosorbent assays (ELISA) using an IL-2 assay kit (Quantikine® M, R&D Systems, Inc), following kit instructions. Measurements of each supernatant sample for IL-2 were performed in duplicate. The experiment was repeated 4 times.

IL-1β = assay: Real time RT-PCR of graft muscularis after SITx, IL-1β; format: in vivo, LEW rats; conditions: BV 50 mmol/kg i.p. donor and recipient; 4 hours; versus saline-treated graft
Description: (§1) Small Intestinal Transplantation. Orthotopic small intestinal transplantation (SITx) was performed in syngeneic Lewis rats. SITx with caval drainage was performed using a previously described procedure (Murase et al., in Handbook of Animal Models in Transplantation Research, Cramer et al., Eds. CRC Press, Boca Raton, Fla., pp. 203-213 (1994)). […] The graft was perfused via the aortic segment with 5 ml chilled Ringer's lactate solution, and the intestinal lumen was irrigated with 20 ml of cold saline solution containing 0.5% neomycin-sulfate (Sigma, St. Louis, Mo.). […]
(§2) SYBR green real time RT-PCR. The effects of administration of biliverdin on transplant-induced pro-inflammatory and anti-inflammatory gene expression were assessed in muscularis extracts by RT-PCR Biliverdin ([…], i.p.) was administered to both the donor and recipient three hours preoperatively. […] Equal aliquots (5 μg) of total RNA from each sample were quantified by spectrophotometry (wavelength […]) and aliquoted at a concentration of 40 ng/μl. Peak mRNA expression was quantified in duplicate by SYBR Green two-step, real-time RT-PCR. […] Real-time PCR data were plotted as the ΔRn fluorescence signal versus the cycle number. […] Quantification of mRNA expression was normalized to GAPDH and calculated relative to control using the comparative CT method (Schmittgen et al., J. Biochem. Biophys. Methods 46(1-2):69-8, 2000). […]

MnSOD = assay: Real time RT-PCR of graft muscularis after SITx, MnSOD; format: in vivo, LEW rats; conditions: BV treatment
Description: as §1, §2

[1] = Total antioxidant capacity of graft, SITx with 6 hours preservation; format: in vivo, LEW rats
Text: Antioxidant capacity after BV treatment. the total antioxidant capacity or antioxidant power within the graft specimens was quantitatively measured. Antioxidant levels in the graft were detected using Total Antioxidant Power® (Oxford Biomedical Research, Oxford, Mich.), according to the manufacturer's instructions. In this procedure, the evaluation of the antioxidant level in a sample is detected by evaluation of Cu^+ derived from Cu^++ by the combined action of all antioxidants present in the sample.

IL-6 = assay: Serum IL-6 (ELISA), SITx with preserved intestine; format: in vivo, LEW rats
Description: Detection of Serum Mediators. Serum samples from the recipients transplanted with preserved intestine were taken at 3 and 12 hours after reperfusion and stored at […] until evaluation. Serum IL-6 was determined using a rat enzyme-linked immunoassay (ELISA) kits as described by the manufacturer (R & D Systems, Inc., Cambridge, Mass.). To monitor the production of nitric oxide, the stable end products of NO metabolism, serum nitrite/nitrate levels, were measured 12 hours after engraftment using a commercially available test kit (Cayman, Ann Arbor, Mich.). In this assay system, nitrate is reduced to nitrite using nitrate reductase, and the nitrite concentration of the sample is subsequently measured using the Griess reaction.

Row | SMILES | HO-1 enzymatic activity (HO-1) | IL-2 production by splenocytes (IL-2) | reduction of IL-1b mRNA expression (IL-1β) [%] | MnSOD expression in the graft (MnSOD) | antioxidant capacity of the transplanted intestine [1] | serum IL-6 protein concentration (IL-6; 3 hours after engraftment, untreated transplant 5131.4±3169.1) [pg/mL] | serum IL-6 concentrations (IL-6; BV treated controls (no transplant))
1 | C=CC1=C(C)c2cc3[n-]c(cc4nc(cc5[n-]c(cc1n2)c(C)c5CCC(=O)[O-])C(CCC(=O)[O-])=C4C)c(C)c3C=C.[Co+2].[H+].[H+] [CoPP, Cobalt protoporphyrin] | significantly enhanced | – | – | – | – | – | –
2 | C=CC1=C(C)/C(=C/C2=NC(=C\c3[nH]c(/C=C4\NC(=O)C(C)=C4C=C)c(C)c3CCC(=O)O)/C(CCC(=O)O)=C2C)NC1=O [biliverdin, biliverdin dihydrochloride] | – | significantly suppressed in a dose-dependent manner | 30 | significantly reduced | increased the antioxidant capacity of the transplanted intestine to normal levels | 1652 ± 306.9 | low
